In ChEMBL document CHEMBL2303647, “Data associated with the publication PLoS ONE, 8(3), e57888, (2013) PMID: 23505445. Compounds: GSK PKIS; Assays: NIH NCATS”:
“Also recorded” adds a separate entry of the source.

How the values were obtained:
[1] = target: T1, Coelenterazine h 2-monooxygenase (Renilla reniformis, UniProt P27652)
T1 sequence (P27652 whole entry): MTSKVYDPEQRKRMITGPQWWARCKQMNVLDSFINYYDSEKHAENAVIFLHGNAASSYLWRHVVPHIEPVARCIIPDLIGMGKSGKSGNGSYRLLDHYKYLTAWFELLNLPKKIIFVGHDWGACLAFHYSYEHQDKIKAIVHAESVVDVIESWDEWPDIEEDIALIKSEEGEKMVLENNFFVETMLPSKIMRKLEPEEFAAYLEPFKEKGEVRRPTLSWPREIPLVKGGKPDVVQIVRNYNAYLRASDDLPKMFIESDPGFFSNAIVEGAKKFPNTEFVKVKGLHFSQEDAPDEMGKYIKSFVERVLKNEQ
Description: GSK_PKIS: Inhibition of Sea Pansy Luciferase (Data from PubChem: AID 652015) [NIH NCATS]

[2] = target: Luciferin 4-monooxygenase (Photinus pyralis, UniProt P08659)
Luciferin 4-monooxygenase, sequence (P08659 whole entry): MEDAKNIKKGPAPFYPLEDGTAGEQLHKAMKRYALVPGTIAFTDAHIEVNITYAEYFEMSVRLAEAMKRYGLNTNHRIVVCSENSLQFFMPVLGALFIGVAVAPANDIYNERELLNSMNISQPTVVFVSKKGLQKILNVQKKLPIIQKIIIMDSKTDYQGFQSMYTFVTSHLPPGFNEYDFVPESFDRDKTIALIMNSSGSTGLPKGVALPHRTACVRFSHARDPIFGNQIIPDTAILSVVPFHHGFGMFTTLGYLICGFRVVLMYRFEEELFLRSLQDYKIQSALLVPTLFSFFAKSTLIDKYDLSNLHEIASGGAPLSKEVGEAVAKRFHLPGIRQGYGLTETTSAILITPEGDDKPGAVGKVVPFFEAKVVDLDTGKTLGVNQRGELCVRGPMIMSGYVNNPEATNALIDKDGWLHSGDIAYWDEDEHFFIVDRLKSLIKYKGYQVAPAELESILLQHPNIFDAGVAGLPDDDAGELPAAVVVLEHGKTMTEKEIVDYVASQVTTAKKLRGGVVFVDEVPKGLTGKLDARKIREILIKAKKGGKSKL
Description: GSK_PKIS: Inhibition of Firefly Luciferase (Data from PubChem: AID 652016) [NIH NCATS]

SMILES	AC50 [1]	AC50 [2]	AC50 ([1]; read-out: AC50) [µM]	AC50 ([2]; read-out: AC50) [µM]
Nc1nonc1-c1nc2cnccc2n1C1CCCCC1	Phenotype: Inactive; Curve_Description: None	Phenotype: Inactive; Curve_Description: None	–	–
O=C(O)C(F)(F)F.O=C(O[C@H]1CN[C@H](C#Cc2cc3ncnc(Nc4ccc(Cc5ccccc5)cc4)c3s2)C1)N1CCOCC1 [GSK-238583A]	–	Phenotype: Inactive; Curve_Description: None	23.1	–
CS(=O)(=O)CCNCc1nc(-c2ccc3ncnc(Nc4ccc(F)c(Cl)c4)c3c2)cs1.Cl [GW461104A]	Phenotype: Inactive; Curve_Description: None	Phenotype: Inactive; Curve_Description: None	–	–
Nc1ccc(C#Cc2cncnc2Nc2ccc(OCc3cccc(F)c3)c(Cl)c2)cc1 [GW659893X]	Phenotype: Inactive; Curve_Description: None	–	–	20.6
NS(=O)(=O)c1ccc(-c2cc3ccncc3cc2OCc2ccccc2)cc1 [GSK-953913A]	–	Phenotype: Inactive; Curve_Description: None	5.8	–
Fc1ccc(-c2c(-c3ccncc3)nc3n2CCS3)cc1	Phenotype: Inactive; Curve_Description: None	Phenotype: Inactive; Curve_Description: None	–	–
c1cnn2ncc(-c3ccnc(NCCCN4CCOCC4)n3)c2c1 [GW683109X]	Phenotype: Inactive; Curve_Description: None	–	–	41.1
CS(=O)(=O)CCNCc1ccoc1-c1ccc2ncnc(Nc3ccc(OCc4ccccc4)cc3)c2c1.Cl [GW568377A]	Phenotype: Inactive; Curve_Description: None	–	–	20.6
COc1cc2ncn(-c3cc(OCc4cccs4)c(C(N)=O)s3)c2cc1OC [GSK-312948A]	–	Phenotype: Inactive; Curve_Description: None	9.19	–
COc1cc(/C=N/Nc2ncnc3[nH]ncc23)ccc1O [GW578748X]	Phenotype: Inactive; Curve_Description: None	–	–	3.66
Cc1ccc(NC(=O)CC2CC2)cc1-c1ccc(C(=O)NCC2CC2)cc1 [GW796920X]	Phenotype: Inactive; Curve_Description: None	–	–	18.3
Cl.Nc1nccc(-c2c(-c3ccc(F)cc3)ncn2C2CCNCC2)n1	Phenotype: Inactive; Curve_Description: None; also recorded: Phenotype: Activator; Curve_Description: None	Phenotype: Inactive; Curve_Description: None	–	23.1
C[C@@H](Oc1cc(-n2cnc3ccc(OC[C@@H](O)CO)cc32)sc1C(N)=O)c1ccccc1Cl [GSK-978744A]	Phenotype: Inactive; Curve_Description: None	Phenotype: Inactive; Curve_Description: None	–	–
CN(C)c1cc2c(Nc3ccc4nc(Cc5ccccc5)[nH]c4c3)ncnc2cn1 [GW301888X]	–	–	18.3	16.3
Cc1nnc(-c2ccc(C)c(-c3ccc(C(=O)Nc4cccc(C#N)c4)cc3)c2)o1 [GW607117X]	Phenotype: Inactive; Curve_Description: None	–	–	41.1
Nc1ncnc2occ(-c3ccc(NC(=O)Nc4cc(C(F)(F)F)cc(C(F)(F)F)c4)cc3)c12 [GW795486X]	–	Phenotype: Inactive; Curve_Description: None	16.3	–
